How the values were obtained:
[1] = tested on: MCF-7 human mammary cells; assay: Effect on the proliferation of mammary cells; format: cell-based; design: key: Mixed: slight agonist activity at very low concentrations and an inhibitory activity at higher concentrations; conditions: 7 days culture, steroid-free medium, DNA determination; oestradiol at 10^−10M = 100% agonist activity
Source text: PHARMACOLOGICAL TESTS Effect on the proliferation of mammary cells The proliferative activity of the molecules is studied in comparison to that of oestradiol on MCF-7 human mammary cells in culture. In order to reveal an agonist effect of the oestradiol and/or the tested molecules, the cell maintenance culture (rich in growth factors and steroids) is replaced by an impoverished medium, amongst others free of steroids (DMEM supplemented with 5% of steroid-free serum and without phenol red). Cells undergo this severance two days before the start of the test. After 7 days culture in the presence of the products to be studied, the cell proliferation is evaluated by determination of the DNA. In each test, the effect of the oestradiol at 10^−10M (cell growth in the presence of oestradiol less cell growth in the presence of the solvent) determines the 100% agonist activity. The activity of the molecules is evaluated in comparison to this internal control.

[2] = tested on: ovariectomized female rat; assay: Bone impact study in the ovariectomized female rat at the age of 3 months (tibia BMD, uterus weight, seric cholesterol); format: in vivo; conditions: OVX rat, 4 weeks; for TIBIA BONE BMD %: (product BMD - OVX BMD)x100/(SHAM BMD - OVX BMD); for UTERUS Weight %: increase in % of uterus weight of OVX animals receiving only solvent; for Cholesterol %: seric cholesterol, % relative to OVX animals receiving only solvent
Protocol: Bone impact study of a product in the ovariectomized female rat at the age of 3 months Compounds A, B, C, D, E are tested in order to determine their effect on the bone mass and on the formation and resorption activity in the model of the ovariectomized rat at the age of 3 months. […] The study is carried out with female rats ovariectomized at the age of 3 months. The animals are kept in an air conditioned room (temperature 20° C.±2° C.) and grouped by 4 into boxes. The animals receive, ad libitum, demineralized water and compressed foods (pellets: AO4CR-10 UAR). The 3 month old female rats weighing approximately 250 g are ovariectomized under anaesthesia with Imalgene 1000, at a dose of 100 mg/kg by intraperitoneal route (i.p.) and under a volume of 1 ml/kg. They also receive Nembutal (3 mg/kg i.p. under a volume of 0.3 ml/kg). After lateral incision, cutaneous and muscular planes are sectioned. The exeresis of each ovary is carried out after ligature of the oviduct. The “SHAM” control rats are anaesthetised under the same conditions. After incision of the cutaneous and muscular planes, each ovary is exposed then replaced in situ. The effects of the products are determined in a preventive treatment. They are administered immediately after the ovariectomy. Animals distributed into groups of 8. Group 1: “SHAM” control rats receiving the vehicle or vehicles Group 2: “OVX” control rats receiving the vehicle or vehicles. Groups X: “OVX” rats receiving respectively defined doses of the product or products to be tested. At the end of 4 weeks (duration of the study) the animals are decapitated by guillotine. The serums collected after centrifugation are preserved at −20° C. A lipidic balance will be established from the serous determinations of total cholesterol, of triglycerides and of phospholipids on a 500 μl aliquot of serum. The lowering of the seric cholesterol level is expressed in % relative to the level shown by the ovariectomized animals receiving only the solvent. The uteri are removed. The latter are weighed. The increase in weight is expressed in % of the weight of the uterus of ovariectomized animals receiving only the solvent. The bone mass (BMD or Bone mineral density) is measured by biphotonic dual energy X-ray absorptiometry (DEXA). The measurements are carried out on bone excized and cleaned of all soft tissue. The BMD (Bone mineral density) is measured on the whole bone as well as on the metaphyseal part at the level of the proximal extremity for the left tibia. This zone is defined as being the region which is richest in trabecular bone; and consequently, is the most sensitive to variations in bone volume and bone mineral density. The results are expressed in % according to the formula: Tested product BMD - OVX BMD ×100/SHAM BMD - OVX BMD

C[C@]12C[C@H](c3ccc(OCCN4CCCCC4)cc3)[C@@H]3c4ccc(O)c(Cl)c4CC[C@H]3[C@@H]1CC[C@@H]2O [Example 22, 4-chloro-11β-[4-[2-(1-piperidinyl)ethoxy]phenyl]-estra-1,3,5(10)-triene-3,17beta-diol]
ACTIVITY (proliferative activity on MCF-7 cells) [1]: Inactive
TIBIA BONE BMD % ([2]; 0.3 mg/kg po): 63%
UTERUS Weight % ([2]; 0.3 mg/kg po): 57%
Cholesterol % ([2]; 0.3 mg/kg po): −52%

CC1(O)CCC2C3CCc4c(ccc(O)c4Cl)C3C(c3ccc(OCCN4CCCCC4)cc3)CC21C (stereo not drawn) [Example 30, 4-chloro-17alpha-methyl-11β-[4-[2-(1-piperidinyl)ethoxy]phenyl]-estra-1,3,5(10)-triene-3,17beta-diol.]
ACTIVITY (proliferative activity on MCF-7 cells) [1]: Mixed
TIBIA BONE BMD % ([2]; 0.3 mg/kg po): 52%
UTERUS Weight % ([2]; 0.3 mg/kg po): 68%
Cholesterol % ([2]; 0.3 mg/kg po): −51%
TIBIA BONE BMD % ([2]; 1.0 mg/kg po): 71%
UTERUS Weight % ([2]; 1.0 mg/kg po): 55%
Cholesterol % ([2]; 1.0 mg/kg po): −48%

CCN(CC)CCOc1ccc([C@H]2C[C@]3(C)[C@@H](O)CC[C@H]3[C@@H]3CCc4c(ccc(O)c4Cl)[C@H]32)cc1 [Example 20, 4-chloro-11beta-[4-[2-(diethylamino)ethoxy]phenyl]-estra-1,3,5 (10)-triene-3,17beta-diol]
ACTIVITY (proliferative activity on MCF-7 cells) [1]: Mixed*
TIBIA BONE BMD % ([2]; 0.3 mg/kg po): 69%
UTERUS Weight % ([2]; 0.3 mg/kg po): 60%
Cholesterol % ([2]; 0.3 mg/kg po): −43%
TIBIA BONE BMD % ([2]; 1.0 mg/kg po): 74%
UTERUS Weight % ([2]; 1.0 mg/kg po): 50%
Cholesterol % ([2]; 1.0 mg/kg po): −40%

C[C@]12CC[C@@H]3c4ccc(O)cc4CC[C@H]3[C@@H]1CC[C@@H]2O [Oestradiol, 17β oestradiol, reference compound]
ACTIVITY (proliferative activity on MCF-7 cells) [1]: Agonist
TIBIA BONE BMD % ([2]; 0.1 mg/kg s.c.): 105%
UTERUS Weight % ([2]; 0.1 mg/kg s.c.): 359%
Cholesterol % ([2]; 0.1 mg/kg s.c.): −35%

C[C@]12C[C@H](c3ccc(OCCN4CCCCC4)cc3)[C@@H]3c4ccc(O)c(Cl)c4CC[C@H]3[C@@H]1CCC2=O [Example 1, 4-chloro-3-hydroxy-11beta-[4-[2-(1-piperidinyl)ethoxy]phenyl]-estra-1,3,5 (10)-trien-17-one]
ACTIVITY (proliferative activity on MCF-7 cells) [1]: Mixed
TIBIA BONE BMD % ([2]; 0.3 mg/kg po): 57%
UTERUS Weight % ([2]; 0.3 mg/kg po): 55%
Cholesterol % ([2]; 0.3 mg/kg po): −50%
TIBIA BONE BMD % ([2]; 1.0 mg/kg po): 64%
UTERUS Weight % ([2]; 1.0 mg/kg po): 55%
Cholesterol % ([2]; 1.0 mg/kg po): −48%

C[C@]12C[C@H](c3ccc(OCCN4CCCC4)cc3)[C@@H]3c4ccc(O)c(Cl)c4CC[C@H]3[C@@H]1CC[C@@H]2O [Example 23, 4-chloro-11β-[4-[2-(1-pyrrolidinyl)ethoxy]phenyl]-estra-1,3,5(10)-triene-3,17beta-diol]
ACTIVITY (proliferative activity on MCF-7 cells) [1]: Mixed
TIBIA BONE BMD % ([2]; 0.3 mg/kg po): 67%
UTERUS Weight % ([2]; 0.3 mg/kg po): 64%
Cholesterol % ([2]; 0.3 mg/kg po): −53%
TIBIA BONE BMD % ([2]; 1.0 mg/kg po): 71%
UTERUS Weight % ([2]; 1.0 mg/kg po): 74%
Cholesterol % ([2]; 1.0 mg/kg po): −53%
